Laboratory results published in publication PMC9408887 (International Journal of Molecular Sciences, 2022).
Like-named read-outs stand apart in the source and are kept apart here.

Legend:
Bla2 [1] = biological target: T1, Bla2 (Bacillus anthracis, UniProt Q93T40); test: biochemical; type: biochemical
Bla2 [2] = biological target: T1, Bla2; type: biochemical
Bla2 [3] = conditions: cited from earlier work

T1 sequence (Q93T40 1-256): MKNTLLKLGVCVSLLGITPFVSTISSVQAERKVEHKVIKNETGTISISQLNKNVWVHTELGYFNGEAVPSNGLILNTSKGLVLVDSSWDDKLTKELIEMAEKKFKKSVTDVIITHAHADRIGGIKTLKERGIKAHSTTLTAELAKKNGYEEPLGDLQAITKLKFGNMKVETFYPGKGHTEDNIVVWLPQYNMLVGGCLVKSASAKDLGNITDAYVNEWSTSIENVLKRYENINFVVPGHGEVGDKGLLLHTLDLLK

| Molecule | IC50 (Bla2 [1]) | IC50 (Bla2 [1]; pH 7, read-out: IC50) | Ki (Bla2 [2]) | mode of inhibition (Bla2 [2]) | Ki (Bla2 [2]; pH 7) | inhibition (Bla2 [3]) |
| --- | --- | --- | --- | --- | --- | --- |
| O=C(CCCCCCC(=O)Nc1ccccc1)NO [SAHA, suberoylanilide hydroxamic acid, reference compound] | > 100 µM | – | – | – | – | – |
| 3-chloro-N-hydroxy-4-(7-(hydroxyamino)-7-oxoheptyl)benzamide [Compound 4] | – | 20 ± 5 µM | 6.4 ± 1.7 µM | competitive inhibition | 6.4 ± 1.7 µM | – |
| N-hydroxy-4-(7-(hydroxyamino)-7-oxoheptyl)-3-methoxybenzamide [Compound 6] | – | 14.9 ± 9.8 µM | 4.7 ± 1.4 µM | competitive inhibition | 4.7 ± 1.4 µM | – |
| O=C(CCCCCOc1cccc(C(=O)NO)c1)NO [N-hydroxy-3-((6-(hydroxyamino)-6-oxohexyl)oxy)benzamide] | – | – | – | – | – | significant inhibition |
| CCCCCCCOc1cccc(C(=O)NO)c1 [3-(heptyloxy)-N-hydroxybenzamide] | – | – | – | – | – | no inhibition |
